The record followed here is patent US20250084079A1, “COMPOSITIONS AND METHODS FOR INHIBITION OF RAS” (TheRas, Inc., priority 2022, published 2025).

pIC50, pKd: −log10 of the molar value.

The target of test [1] is T1, Avi-KRAS G12V (1-169) GppNHp/RAF1 RBD-3xFLAG (52-151) (Homo sapiens, UniProt P01116, G12V).
T1 construct: 50 nM Avi-KRAS G12V (1-169) GppNHp
In words: RAS-effector PPI HTRF disruption assay, Raf1-GppNHp-KRAS G12V. The test is classed as biochemical. The essentials: (§1)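 Disruption of Avi-KRAS(1-169)·GppNHp binding to FLAG-tagged effector fragments is measured by HTRF. The PI3KCA complex (G12D/Q25A) runs at 375 nM, the G12D/RAF1 complex at 100 nM, and the G12V and WT RAF1 complexes at 50 nM. Values are IC50s relative to DMSO.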

Test [2] deals with T2, Avi-KRAS G12D (1-169) GppNHp/RAF1 RBD-3xFLAG (52-151) (Homo sapiens, UniProt P01116, G12D).
T2 construct: 100 nM Avi-KRAS G12D (1-169) GppNHp
T2 sequence (P01116 1-169 isoform P01116-2 G12D): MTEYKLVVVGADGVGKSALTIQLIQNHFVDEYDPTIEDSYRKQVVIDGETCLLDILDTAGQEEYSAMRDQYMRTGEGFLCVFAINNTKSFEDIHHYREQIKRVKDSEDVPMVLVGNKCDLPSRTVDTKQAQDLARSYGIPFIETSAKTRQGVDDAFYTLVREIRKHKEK
Description: RAS-effector PPI HTRF disruption assay, Raf1-GppNHp-KRAS G12D. It counts as biochemical. In a few lines:
as §1
For orientation: In TR-FRET formats the signal depends on donor and acceptor labels being close together.

The test system of test [3] is pERK in GP2d cells (KRAS G12D). Description: Cell-based pERK HTRF assay in GP2d cell. As to conditions: GP2d, 1 h, 60 min incubation. In a few lines: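 GP2d cells (KRAS G12D) in DMEM/10% FBS were seeded the day before and exposed to compounds for 60 min in 0.25% DMSO. The 9-point curve started at 1 μM with half-log steps. Lysates were read for pERK by HTRF (Eu cryptate/d2 antibodies) after 4–24 h at room temperature, with excitation at 320 nm and emission at 615 nm.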

A further test has as its target GppNHp KRAS G12D (Homo sapiens, UniProt P01116, G12D). Description: SPR binding affinity to GppNHp KRAS G12D (Biacore S200). To be noted: GppNHp-loaded KRAS G12D, steady state KD. Here is the method: (§2) The affinity of compounds of the present disclosure to RAS ligands was assessed using surface plasmon resonance (SPR) binding analysis using a Biacore S200 (GE Healthcare Life Sciences) instrument. The SPR binding analysis employed the following reagents and protocols:
(§3) Buffer preparation: To make 0.5 L add required amounts of stocks for: 20 mM Hepes, 150 mM NaCl, 5 mM MgCl2, 1 mM TCEP, 0.05% P20, and 5 μM nucleotide. Adjust pH to 7.4, then bring volume up to 475 mL 1.05×Filter through 0.2 μm cellulose acetate membrane. Remove a volume of buffer as No DMSO Buffer 1.05× and set aside. Add appropriate volume of DMSO to buffer to a final concentration 5% DMSO.
(§4) Chip preparation: Prime 2× with 5% DMSO buffer. Allow system to flow on standby throughout the day.
(§5) Sample preparation: Make a 20× compound solution in 100% DMSO of highest compound concentration to be screened (2 mM for final 100 μM compound). Add appropriate volume of 1.05× buffer without DMSO to give 5% DMSO and mix by pipetting. Centrifuge sample 18,000×g 5 min 25° C. Make appropriate serial dilutions from the highest concentration into 5% DMSO running buffer for the concentrations needed. Prepare 5.8% DMSO and 4.5% DMSO solvent correction solutions using buffer without DMSO. Make two more solvent corrections by mixing 200 μL 4.5% 500 μL 5.8%, and 400 μL 4.5% 300 μL 5.8%
(§6) Capture Avi-taggedprotein: Thaw protein stock on ice, aliquot into single use size and freeze at −80° C. for future use. Dilute protein (avi-KRAS WT, avi-KRAS-G12D, avi-KRAS-G12V, or avi-RhoA) appropriately, to 20 μg/mL to begin in 5% DMSO buffer. Manually inject at 10 μL/min 12 second contact time. Adjust flow and or contact time to achieve desired level of captured protein. When desired level of protein is captured, flow for 10 minutes to stabilize signal.
(§7) General Binding Level Screen Method: Choose LMW screen template in Fragment/LMW subfolder in Binding screen folder. 30 μL/min high performance injection, 60 sec contact and dissociation time, carry over control, extra wash with 50% DMSO for each injection. Fifteen Startup cycles to condition. Control samples before and after compound samples. For GppNHp loaded KRAS, control is 20 μM Raf1 RBD domain. Adjust this sample to final 5% DMSO to match running buffer. This process is performed at a temperature of 25° C. using a single chip per experiment.
(§8) Binding affinity determination: Compounds selected from the binding level screen are evaluated in a dose response to determine the binding affinity (KD). Serial dilutions of compounds are prepared and injected over the sensor chip using a flow rate of 30 μL/min with a 60 second contact and dissociation time. After double referencing of the sensorgrams the total level of compound binding at each concentration is calculated. The steady state binding affinity is calculated with a Langmuir binding model assuming a 1:1 interaction with a constrained Rmax using the BIAevaluation software.
Background: In SPR one partner is held on a chip, and binding of the other changes the refractive index at the surface.

The target of test [4] is T3, Avi-KRAS WT (1-169) GppNHp/RAF1 RBD-3xFLAG (52-151) (Homo sapiens, UniProt P01116).
T3 construct: 50 nM Avi-KRAS WT (1-169) GppNHp
T3 sequence (P01116 1-169 isoform P01116-2): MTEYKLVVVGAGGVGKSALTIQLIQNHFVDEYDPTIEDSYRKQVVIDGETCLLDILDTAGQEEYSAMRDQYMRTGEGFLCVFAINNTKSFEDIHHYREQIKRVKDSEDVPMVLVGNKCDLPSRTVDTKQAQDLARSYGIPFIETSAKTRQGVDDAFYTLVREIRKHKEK
In words: RAS-effector PPI HTRF disruption assay, Raf1-GppNHp-KRAS WT. It counts as biochemical. The essentials: as §1

In the next test the target is GDP KRAS G12D (Homo sapiens, UniProt P01116, G12D). In words: SPR binding affinity to GDP KRAS G12D (Biacore S200). As to conditions: GDP-loaded KRAS G12D, steady state KD. As to the method: as §2, §3, §4, §5, §6, §7, §8
GDP KRAS G12D, sequence (P01116 1-188 isoform P01116-2 G12D): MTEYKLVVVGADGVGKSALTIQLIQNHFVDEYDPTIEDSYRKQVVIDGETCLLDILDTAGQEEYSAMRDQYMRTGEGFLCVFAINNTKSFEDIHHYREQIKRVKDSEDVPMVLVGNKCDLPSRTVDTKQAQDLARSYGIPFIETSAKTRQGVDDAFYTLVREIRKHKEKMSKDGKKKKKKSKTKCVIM
For test [5], the target named is T4, Avi-KRAS G12D/Q25A (1-169) GppNHp/3xFLAG-PI3KCA (157-299) (Homo sapiens, UniProt P01116, G12D/Q25A).
T4 construct: 375 nM Avi-KRAS G12D/Q25A (1-169) GppNHp
T4 sequence (P01116 1-169 isoform P01116-2 G12D/Q25A): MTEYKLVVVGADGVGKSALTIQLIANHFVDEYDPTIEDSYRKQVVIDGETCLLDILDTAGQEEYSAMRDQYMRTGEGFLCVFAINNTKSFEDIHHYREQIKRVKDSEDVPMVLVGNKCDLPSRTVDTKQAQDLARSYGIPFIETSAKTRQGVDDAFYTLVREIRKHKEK
In words: RAS-effector PPI HTRF disruption assay, PI3KCA-GppNHp-KRAS G12D/Q25A. It counts as biochemical. The essentials:
as §1

One may read the pIC50 as the IC50 on a negative log10 scale, so that one unit is a factor of ten. Broadly, the pKd is the Kd on a negative log10 scale, so that one unit is a factor of ten. The low end stands for a high Kd, the high end for a low Kd.

T1 sequence (P01116 1-169 isoform P01116-2 G12V): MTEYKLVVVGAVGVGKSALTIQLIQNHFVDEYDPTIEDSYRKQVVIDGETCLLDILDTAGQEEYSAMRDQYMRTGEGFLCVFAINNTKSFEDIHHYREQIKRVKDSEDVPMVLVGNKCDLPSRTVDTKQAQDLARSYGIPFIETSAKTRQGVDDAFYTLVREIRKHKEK
GppNHp KRAS G12D, sequence (P01116 1-188 isoform P01116-2 G12D): as the sequence (P01116 1-188 isoform P01116-2 G12D) above

On to `Nc1nc2c(-c3c(C(F)(F)F)cc4c(O[C@H]5CNC[C@@H]5F)nc(OC[C@@]56CCCN5C[C@H](F)C6)nc4c3F)ccc(F)c2s1` (atropisomer, axis not shown) [Compound 17], for which the negative logarithm of the IC50 (pIC50) is 5.00 to 6.00 in test [1]; 6.00 to 7.00 in test [2]; 6.00 to 7.00 in test [3]; 5.00 to 6.00 in test [4]; 6.00 to 7.00 in test [5]. In addition, the negative-log Kd (pKd) was 6.00 to 7.00 at GppNHp KRAS G12D and no less than 7.00 at GDP KRAS G12D.
For `Nc1nc2c(-c3c(C(F)(F)F)cc4c(O[C@H]5CNC[C@@H]5F)nc(OC[C@@]56CCCN5C[C@H](F)C6)nc4c3F)ccc(F)c2s1` (atropisomer, axis not shown) [Compound 18], the negative-log IC50 (pIC50) in test [1], in test [2], in test [4] and in test [5] was less than 5.00 in each case. For the same molecule, the pKd at GppNHp KRAS G12D was less than 5.00; on GDP KRAS G12D, 6.00 to 7.00.
In the case of `C[C@@H]1C[C@@H](Oc2nc(OC[C@@]34CCCN3C[C@H](F)C4)nc3c(F)c(-c4ccc(F)c5sc(N)nc45)c(C(F)(F)F)cc23)CN1` (atropisomer, axis not shown) [Compound 20], the pIC50 in test [1] is 5.00 to 6.00; in test [2], 6.00 to 7.00; in test [3], no less than 7.00; in test [4], 5.00 to 6.00; in test [5] it was 5.00 to 6.00. In addition, the pKd was 6.00 to 7.00 at GppNHp KRAS G12D and no less than 7.00 at GDP KRAS G12D.
In the case of `C[C@@H]1C[C@@H](Oc2nc(OC[C@@]34CCCN3C[C@H](F)C4)nc3c(F)c(-c4ccc(F)c5sc(N)nc45)c(C(F)(F)F)cc23)CN1` (atropisomer, axis not shown) [Compound 21], the negative logarithm of the IC50 (pIC50) in test [1], in test [2], in test [4] and in test [5] was less than 5.00 in each case. For the same molecule, the pKd on GppNHp KRAS G12D is less than 5.00; on GDP KRAS G12D, 5.00 to 6.00.
As for `C[C@H]1C[C@@H](Oc2nc(OC[C@@]34CCCN3C[C@H](F)C4)nc3c(F)c(-c4ccc(F)c5sc(N)nc45)c(C(F)(F)F)cc23)CN1` [Compound 7], the pIC50 in test [1] is less than 5.00; in test [2], 6.00 to 7.00; in test [3], no less than 7.00; in test [4] it was 5.00 to 6.00; in test [5], 5.00 to 6.00. This molecule also had a pKd on GppNHp KRAS G12D of 5.00 to 6.00.
Turning to `C[C@H]1NCCC1Oc1nc(OC[C@@]23CCCN2C[C@H](F)C3)nc2c(F)c(-c3ccc(F)c4sc(N)nc34)c(C(F)(F)F)cc12` (some centres unmarked) [Compound 19], the negative-log IC50 (pIC50) in test [1] was 5.00 to 6.00; in test [2], 6.00 to 7.00; in test [3], no less than 7.00; in test [4], 6.00 to 7.00; in test [5] it was 6.00 to 7.00. Besides, the pKd on GppNHp KRAS G12D is 6.00 to 7.00; at GDP KRAS G12D it was no less than 7.00.
On to `Nc1nc2c(-c3c(C(F)(F)F)cc4c(OC5CC6CC[C@H](C5)N6)nc(OCC56CCCN5CCC6)nc4c3F)ccc(F)c2s1` (some centres unmarked) [Compound 26], for which the pIC50 in test [1] is 5.00 to 6.00; in test [2], no less than 7.00; in test [3] it was less than 6.00; in test [4] it was no less than 7.00; in test [5], 6.00 to 7.00. Further, the pKd on GppNHp KRAS G12D and at GDP KRAS G12D was no less than 7.00 in each case.
For `N#Cc1c(N)sc2c(F)ccc(-c3ccc4c(O[C@H]5CNC[C@H]5F)nc(OC[C@@]56CCCN5C[C@H](F)C6)nc4c3F)c12` [Compound 66], the negative logarithm of the IC50 (pIC50) in test [1] is less than 5.00; in test [2], 5.00 to 6.00; in test [3] it was 6.00 to 7.00; in test [4] it was 5.00 to 6.00; in test [5], 5.00 to 6.00.
As to `N#Cc1c(N)sc2c(F)ccc(-c3c(C(F)(F)F)cc4c(O[C@@H]5CCNC5)nc(N5CC(N6CC7(CC7)C6)C5)nc4c3F)c12` [Compound 67], the negative logarithm of the IC50 (pIC50) is 5.00 to 6.00 in test [1]; 6.00 to 7.00 in test [2]; 6.00 to 7.00 in test [3]; 6.00 to 7.00 in test [4]; less than 5.00 in test [5].
In the case of `N#Cc1c(N)sc2c(F)ccc(-c3c(Cl)cc4c(O[C@@H]5CN[C@H](CO)C5)nc(OC[C@@]56CCCN5C[C@H](F)C6)nc4c3F)c12` [Compound 70], the pIC50 in test [1] is 6.00 to 7.00; in test [2], no less than 7.00; in test [3] it was 6.00 to 7.00; in test [4] it was 6.00 to 7.00; in test [5], 6.00 to 7.00.
With `N#Cc1c(N)sc2c(F)ccc(-c3ccc4c(O[C@H]5CNC[C@@H]5F)nc(OC[C@@]56CCCN5C[C@H](F)C6)nc4c3F)c12` [Compound 71], the pIC50 was less than 5.00 in test [1]; 5.00 to 6.00 in test [2]; less than 6.00 in test [3]; 5.00 to 6.00 in test [4]; 5.00 to 6.00 in test [5].
For `C[C@H]1NCC[C@@H]1Oc1nc(OC[C@@]23CCCN2C[C@H](Cl)C3)nc2c(F)c(-c3ccc(F)c4sc(N)c(C#N)c34)c(C(F)(F)F)cc12` [Compound 72], the negative-log IC50 (pIC50) in test [1] was 6.00 to 7.00; in test [2], no less than 7.00; in test [3], no less than 7.00; in test [4] it was no less than 7.00; in test [5] it was 6.00 to 7.00.
As for `N#Cc1c(N)sc2c(F)ccc(-c3c(F)cc4c(O[C@@H]5CCNC5)nc(OC[C@@]56CCCN5C[C@H](F)C6)nc4c3F)c12` [Compound 77], the pIC50 in test [1] was less than 5.00; in test [2], less than 5.00; in test [3] it was less than 6.00; in test [4] it was less than 5.00; in test [5], less than 5.00.
Consider `N#Cc1c(N)sc2c(F)ccc(-c3ncc4c(O[C@@H]5CCNC5)nc(OC[C@@]56CCCN5C[C@H](F)C6)nc4c3F)c12` [Compound 97], for which the negative-log IC50 (pIC50) is less than 5.00 in test [1]; 5.00 to 6.00 in test [2]; 6.00 to 7.00 in test [3]; 5.00 to 6.00 in test [4]; less than 5.00 in test [5].
On to `C[C@H]1NCC[C@H]1Oc1nc(OC[C@@]23CCCN2C[C@H](F)C3)nc2c(F)c(-c3ccc(F)c4sc(N)c(C#N)c34)ncc12` [Compound 98, 2-amino-7-fluoro-4-(8-fluoro-2-(((2R,7aS)-2-fluorotetrahydro-1H-pyrrolizin-7a(5H)-yl)methoxy)-4-(((2R,3R)-2-methylpyrrolidin-3-yl)oxy)pyrido[4,3-d]pyrimidin-7-yl)benzo[b]thiophene-3-carbonitrile], for which the pIC50 is 5.00 to 6.00 in test [1]; 5.00 to 6.00 in test [2]; 6.00 to 7.00 in test [3]; 5.00 to 6.00 in test [4]; less than 5.00 in test [5].
